SMILES strings stand for the structures.

In general, IC50 refers to the concentration at which inhibition is half-maximal. A low value points to higher potency.

One experiment deals with IL-12 induced STAT4 phosphorlyation mediated by TYK2/JAK2. Nature of the experiment: IL-12 Induced pSTAT4 in Human PBMC. The format is cell-based. Particulars: 1.7 ng/mL IL-12 for 30 minutes. An outline of the steps:
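pSTAT4 and total STAT4 quantified by MSD in lysates of cryopreserved human PBMC after 30-minute stimulation with 1.7 ng/mL IL-12 (final). Compound was added 1 hr beforehand at 37° C, 0.1% DMSO final.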
Compound `CNc1cc(-c2cnc3n([C@@H]4CCOC4)cccc2-3)nc2c(C(=O)N[C@H]3CC[C@@H]3OC)cnn12` [Compound I-1004] showed an IC50 below 0.1 µM.

Turning to `CNc1cc(Nc2cccn(C3CC(F)(F)C3)c2=O)nc2c(C(=O)N[C@@H]3C[C@H]3OC)cnn12` [Compound I-139], the IC50 was below 0.1 µM.

Compound `CNc1cc(Nc2cccn([C@@H]3CCCOC3)c2=O)nc2c(C(=O)NC3CCC3(F)F)cnn12` (stereo partly shown) [Compound I-315] displayed an IC50 below 0.1 µM.

Take `CNc1cc(Nc2cccn([C@H]3CCCC[C@H]3O)c2=O)nc2c(C(=O)NC3CC[C@]3(C)OC)cnn12` (stereo partly shown) [Compound I-423]: the IC50 was below 0.1 µM.

`CNc1cc(Nc2cccn([C@@H]3CCC[C@@H]3O)c2=O)nc2c(C(=O)NC3CCC3(F)F)cnn12` (stereo partly shown) [Compound I-303] displayed an IC50 below 0.1 µM.

Regarding `CNc1cc(Nc2cccn([C@H]3CC[C@H](OC)CC3)c2=O)nc2c(C(=O)N[C@H]3CC[C@@H]3F)cnn12` [Compound I-225], the IC50 was below 0.1 µM.

As for `CNc1cc(Nc2cccn([C@H]3CCC[C@@H](C#N)C3)c2=O)nc2c(C(=O)NC3CCC3(F)F)cnn12` (stereo partly shown) [Compound I-330], the IC50 was below 0.1 µM.

Compound `CNc1cc(-c2cn([C@@H]3CCOC[C@@H]3OC)c3ncccc23)nc2c(C(=O)NC3CC[C@@H]3OC)cnn12` (stereo partly shown) [Compound I-668] yielded a half-maximal inhibitory concentration (IC50) below 0.1 µM.

`CNc1cc(Nc2cccn([C@@H]3C[C@H]3F)c2=O)nc2c(C(=O)NC3CC[C@@H]3F)cnn12` (stereo partly shown) [Compound I-151] yielded an IC50 below 0.1 µM.

Compound `CNc1cc(-c2cn(C3COC3)c3ncccc23)nc2c(C(=O)N[C@@H]3CCC3(F)F)cnn12` [Compound I-675] returned an IC50 below 0.1 µM.

Compound `CNc1cc(-c2cn([C@@H]3CCOC[C@@H]3OC)c3ncccc23)nc2c(C(=O)N[C@H]3CCC3(F)F)cnn12` [Compound I-703] yielded an IC50 below 0.1 µM.

Consider `CNc1cc(-c2cn([C@@H]3COC[C@@H]3F)c3ncccc23)nc2c(C(=O)N[C@@H]3COC[C@@H]3O)cnn12` [Compound I-730], for which the IC50 lay within 0.1 to 0.5 µM.

`CNc1cc(Nc2cccn([C@@H]3CCC[C@@H]3O)c2=O)nc2c(C(=O)N[C@@H]3CC[C@H]3F)cnn12` [Compound I-181] registered an IC50 below 0.1 µM.

`CNc1cc(-c2cn([C@H]3COC[C@@H]3O)c3ncccc23)nc2c(C(=O)N[C@H]3CC[C@@H]3OC)cnn12` [Compound I-631] came in with an IC50 below 0.1 µM.

With `CNc1cc(Nc2cccn(C3CCOCC3)c2=O)nc2c(C(=O)N[C@@H]3CCC3(F)F)cnn12` [Compound I-311], the IC50 was below 0.1 µM.

Turning to `CNc1cc(Nc2cccn([C@@H]3CCC[C@@H](OC)C3)c2=O)nc2c(C(=O)NC3CC[C@@H]3F)cnn12` (stereo partly shown) [Compound I-227], the IC50 is below 0.1 µM.

Turning to `CNc1cc(Nc2cccn([C@H]3C[C@H](F)C3)c2=O)nc2c(C(=O)N[C@@H]3CC[C@H]3O)cnn12` [Compound I-108, 5-((1-((1r,3R)-3-Fluorocyclobutyl)-2-oxo-1,2-dihydropyridin-3-yl)amino)-N-((1R,2R)-2-hydroxycyclobutyl)-7-(methylamino)pyrazolo[1,5-a]pyrimidine-3-carboxamide], the IC50 lay within 0.1 to 0.5 µM.

`CNc1cc(-c2cn(C3CCCC3)c3ncccc23)nc2c(C(=O)NC3CCC3(F)F)cnn12` (stereo not shown) [Compound I-680] displayed an IC50 below 0.1 µM.

Take `CNc1cc(-c2cn([C@@H]3CCN(C)C3)c3ncccc23)nc2c(C(=O)NC3CC[C@@H]3OC)cnn12` (stereo partly shown) [Compound I-615]: the IC50 is below 0.1 µM.

As to `CNc1cc(Nc2cccn(C3CCOCC3)c2=O)nc2c(C(=O)N[C@H]3CC[C@H]3F)cnn12` [Compound I-192], the IC50 was below 0.1 µM.

As to `CNc1cc(Nc2cccn([C@@H]3CCC[C@](C)(OC)C3)c2=O)nc2c(C(=O)N[C@@H]3C[C@@H]3F)cnn12` [Compound I-131], the IC50 is below 0.1 µM.

Compound `CNc1cc(-c2cn([C@@H]3CCN(C)C3)c3ncccc23)nc2c(C(=O)NC3CCC3(F)F)cnn12` (stereo partly shown) [Compound I-686] displayed an IC50 below 0.1 µM.

In turn, `CNc1cc(Nc2cccn(C3CCOCC3)c2=O)nc2c(C(=O)N[C@@H]3CC[C@H]3F)cnn12` [Compound I-190] yielded an IC50 below 0.1 µM.

`CNc1cc(-c2cn([C@H]3C[C@@H](O)C3)c3ncccc23)nc2c(C(=O)NC3CCC3(F)F)cnn12` (stereo partly shown) [Compound I-677] returned an IC50 below 0.1 µM.

The compound `CNc1cc(-c2cnc3n([C@@H]4CCOC4)cccc2-3)nc2c(C(=O)NC3CC[C@@H]3OC)cnn12` (stereo partly shown) [Compound I-995] yielded an IC50 below 0.1 µM.

As for `CNc1ccc(-c2cc(NC)n3ncc(C(=O)NC4CC[C@H]4O)c3n2)n2ccnc12` (stereo partly shown) [Compound I-484], the IC50 is below 0.1 µM.

As to `CNc1cc(-c2cnc3n([C@@H]4CCOC[C@H]4O)cccc2-3)nc2c(C(=O)N[C@H]3CC[C@@H]3F)cnn12` [Compound I-848], the IC50 was below 0.1 µM.

Consider `CNc1cc(Nc2cccn(C3CCOCC3)c2=O)nc2c(C(=O)NC3CC[C@H]3F)cnn12` (stereo partly shown) [Compound I-191], for which the IC50 was below 0.1 µM.

Turning to `CNc1cc(Nc2cccn([C@@H]3C[C@H]3OC)c2=O)nc2c(C(=O)N[C@H]3CC[C@@H]3F)cnn12` [Compound I-155], the IC50 was below 0.1 µM.

`CNc1cc(-c2cnc3n([C@@H]4CCOC4)cccc2-3)nc2c(C(=O)N[C@@H]3CC[C@H]3OC)cnn12` [Compound I-1005] displayed an IC50 of 0.1 to 0.5 µM.

For the compound `CNc1cc(Nc2cccn([C@@H]3CCOC[C@@H]3OC)c2=O)nc2c(C(=O)N[C@@H]3CC[C@H]3F)cnn12` [Compound I-217], the IC50 was below 0.1 µM.

For the compound `CNc1cc(Nc2cccn([C@H]3C[C@@H]3F)c2=O)nc2c(C(=O)N[C@H]3CC[C@@H]3F)cnn12` [Compound I-149], the IC50 is below 0.1 µM.

`CNc1cc(Nc2cccn([C@H]3CC[C@@H](OC)CC3)c2=O)nc2c(C(=O)N[C@@H]3CC[C@@]3(C)OC)cnn12` [Compound I-431] returned an IC50 below 0.1 µM.

Compound `CNc1cc(Nc2cccn(C3CCC[C@@](C)(OC)C3)c2=O)nc2c(C(=O)N[C@@H]3C[C@@H]3F)cnn12` (stereo partly shown) [Compound I-130] returned an IC50 below 0.1 µM.

Regarding `CNc1cc(-c2cn([C@@H]3COC[C@H]3O)c3ncccc23)nc2c(C(=O)NC3CCC3(F)F)cnn12` (stereo partly shown) [Compound I-692], the half-inhibitory concentration (IC50) was below 0.1 µM.

In turn, `CNc1cc(-c2cn(C(C)C)c3nnccc23)nc2c(C(=O)N[C@H]3CC[C@H]3O)cnn12` [Compound I-1000] gave an IC50 of 0.5 to 1 µM.

In the case of `CNc1cc(Nc2cccn([C@H]3C[C@H](F)C3)c2=O)nc2c(C(=O)N[C@@H]3CC[C@H]3OC)cnn12` [Compound I-57, 5-((1-((1r,3R)-3-Fluorocyclobutyl)-2-oxo-1,2-dihydropyridin-3-yl)amino)-N-((1R,2R)-2-methoxycyclobutyl)-7-(methylamino)pyrazolo[1,5-a]pyrimidine-3-carboxamide], the IC50 is below 0.1 µM.

`CNc1cc(-c2cn(C(C)C)c3nnccc23)nc2c(C(=O)N[C@@H]3CC[C@H]3OC)cnn12` [Compound I-1009] yielded an IC50 below 0.1 µM.

`CNc1cc(-c2cn([C@H]3CCOC[C@H]3OC)c3ncccc23)nc2c(C(=O)NC3CC[C@@H]3F)cnn12` (stereo partly shown) [Compound I-546] gave an IC50 below 0.1 µM.

Staying with this experiment, now noted: 0.5 h, 1.7 ng/mL IL-12 for 30 minutes.
As for `CNc1cc(-c2cnc3n(CCCN4CCOCC4)cccc2-3)nc2c(C(=O)NC3CC[C@@H]3OC)cnn12` (stereo in doubt) [Compound I-981, N-(2-methoxycyclobutyl)-7-(methylamino)-5-(7-(3-morpholinopropyl)-7H-pyrrolo[2,3-b]pyridin-3-yl)pyrazolo[1,5-a]pyrimidine-3-carboxamide], the IC50 lay within 0.1 to 0.5 µM.

In turn, `CNc1cc(Nc2cccn([C@H]3C[C@@H]3F)c2=O)nc2c(C(=O)NC3CC[C@@H]3F)cnn12` (stereo partly drawn) [Compound I-148, N-((trans-1,2)-2-Fluorocyclobutyl)-5-((1-((1S,2S)-2-fluorocyclopropyl)-2-oxo-1,2-dihydropyridin-3-yl)amino)-7-(methylamino)pyrazolo[1,5-a]pyrimidine-3-carboxamide] gave an IC50 below 0.1 µM.

`[2H]C([2H])([2H])O[C@H]1CCC1NC(=O)c1cnn2c(NC)cc(Nc3cccn([C@H]4[C@@H]5COC[C@@H]54)c3=O)nc12` (stereo partly drawn) [Compound I-102, 5-((1-((1R,5S,6r)-3-Oxabicyclo[3.1.0]hexan-6-yl)-2-oxo-1,2-dihydropyridin-3-yl)amino)-N-((trans-1,2)-2-(methoxy-d3)cyclobutyl)-7-(methylamino)pyrazolo[1,5-a]pyrimidine-3-carboxamide] yielded an IC50 below 0.1 µM.

In the case of `CNc1cc(-c2cn(CC(=O)N(C)C)c3ncccc23)nc2c(C(=O)NC3CC[C@@H]3OC)cnn12` (stereo in doubt) [Compound I-920, 5-(1-(2-(dimethylamino)-2-oxoethyl)-1H-pyrrolo[2,3-b]pyridin-3-yl)-N-(2-methoxycyclobutyl)-7-(methylamino)pyrazolo[1,5-a]pyrimidine-3-carboxamide], the IC50 lay in the range of 0.1 to 0.5 µM.

`CNc1cc(-c2cn([C@H]3CCOC[C@H]3OC)c3ncccc23)nc2c(C(=O)NC3CC[C@@H]3OC)cnn12` (stereo partly drawn) [Compound I-665, N-((trans-1,2)-2-Methoxycyclobutyl)-5-(1-((3S,4S)-3-methoxytetrahydro-2H-pyran-4-yl)-1H-pyrrolo[2,3-b]pyridin-3-yl)-7-(methylamino)pyrazolo[1,5-a]pyrimidine-3-carboxamide] yielded an IC50 below 0.1 µM.

The compound `CNc1cc(-c2cn([C@@H]3CCOC[C@H]3F)c3ncccc23)nc2c(C(=O)NC3CC[C@H]3O)cnn12` (stereo partly drawn) [Compound I-592, 5-(1-((3S,4R)-3-Fluorotetrahydro-2H-pyran-4-yl)-1H-pyrrolo[2,3-b]pyridin-3-yl)-N-((cis-1,2)-2-hydroxycyclobutyl)-7-(methylamino)pyrazolo[1,5-a]pyrimidine-3-carboxamide] displayed an IC50 below 0.1 µM.

The compound `CNc1cc(-c2cnc3n(CC(C)(C)O)cccc2-3)nc2c(C(=O)NC3CC[C@@H]3OC)cnn12` (stereo in doubt) [Compound I-979, 5-(7-(2-hydroxy-2-methylpropyl)-7H-pyrrolo[2,3-b]pyridin-3-yl)-N-(2-methoxycyclobutyl)-7-(methylamino)pyrazolo[1,5-a]pyrimidine-3-carboxamide] showed an IC50 of 0.1 to 0.5 µM.

Source of the values: patent publication US11414431B2, “Substituted pyrazolo[1,5-a]pyrimidines as TYK2 inhibitors” (Nimbus Lakshmi, Inc., priority 2018, dated 2022).
